Source: patent EP4603105A1, “PHARMACEUTICAL COMPOSITION CONTAINING CYCLIC COMPOUND HAVING SELECTIVE KRAS INHIBITORY EFFECT AGAINST HRAS AND NRAS” (CHUGAI SEIYAKU KABUSHIKI KAISHA, priority 2022, dated 2024)
Where a SMILES comes first, the peptide text is derived from it. Bridges are numbered along the chain shown (N, C = ends). [ ]: non-standard residue; d: D form. The star is where a group is joined. hPhe(3-Cl-4-CF3) = N[C@@H](CCc1ccc(C(F)(F)F)c(Cl)c1)C(=O)O; NPrPhe(4-CF3) = CCCN[C@@H](Cc1ccc(C(F)(F)F)cc1)C(=O)O; NMeGly(cPent) = CN[C@H](C(=O)O)C1CCCC1; Pro(4S-Me) = C[C@@H]1CN[C@H](C(=O)O)C1; NMeD = CN[C@@H](CC(=O)O)C(=O)O; NMeL = CN[C@@H](CC(C)C)C(=O)O; Morpholide = C1CN(*)CCO1; NMeA = CN[C@@H](C)C(=O)O; Ac5c = NC1(C(=O)O)CCCC1; Aze = O=C(O)[C@@H]1CCN1; Sar = CNCC(=O)O

Tested on: human lung cancer strain NCI-H441
Format: cell-based
Method: A test compound was dispensed into a U-bottom 384-well plate as 40 nL serially diluted dimethyl sulfoxide solutions using a liquid handler Echo (LABCYTE). […] This cell suspension was dispensed in an amount of 40 µL per well into a plate containing the test compound, and cultured at 37°C in a 5% carbon dioxide gas incubator. Four days later, 20 µL of CellTiter-Glo (registered trademark) (Promega) was added to each well and […] was measured. […]

Structure (SMILES) | IC50 [nM]
CCCN1C(=O)[C@@H]2CCN2C(=O)[C@H](C)N(C)C(=O)[C@H]([C@@H](C)CC)NC(=O)[C@H](CC(C)C)N(C)C(=O)C[C@@H](C(=O)N2CCOCC2)N(C)C(=O)[C@H](C2CCCC2)N(C)C(=O)C2(CCCC2)NC(=O)[C@@H]2C[C@H](C)CN2C(=O)[C@H](CCc2ccc(C(F)(F)F)c(Cl)c2)NC(=O)CN(C)C(=O)[C@@H]1Cc1ccc(C(F)(F)F)cc1 [PP0455] ([NMeL]I[NMeA][Aze][NPrPhe(4-CF3)][Sar][hPhe(3-Cl-4-CF3)][Pro(4S-Me)][Ac5c][NMeGly(cPent)][NMeD]-Morpholide; lactam N-11) | 9.9
CC[C@H](C)[C@@H]1NC(=O)[C@H](CC(C)C)N(C)C(=O)C[C@@H](C(=O)N2CCOCC2)N(C)C(=O)[C@H](C2CCCC2)NC(=O)C2(CCCC2)NC(=O)[C@@H]2CCCN2C(=O)[C@H](CCc2cc(F)c(C(F)(F)F)c(F)c2)NC(=O)CN(C)C(=O)[C@H](Cc2ccc(C(F)(F)F)cc2)N2CCCCC[C@@H](C2=O)N(C)C(=O)CN(C)C1=O [PP0478] | 2750
CCO[C@@H]1C[C@H]2C(=O)NC3(CCC3)C(=O)N(C)[C@@H](C(CC)CC)C(=O)N(C)[C@H](C)CC(=O)N(C)[C@@H](CC3CCCC3)C(=O)N[C@@H]([C@@H](C)CC)C(=O)N(C)CC(=O)N(C)[C@H]3C/C=C\CCN(C3=O)[C@@H](Cc3ccc(F)cc3)C(=O)N(C)CC(=O)N[C@@H](CCc3cc(F)c(C(F)(F)F)c(F)c3)C(=O)N2C1 [PP1523] | 320
CCC[C@H]1C(=O)N[C@@H]([C@@H](C)CC)C(=O)N(C)CC(=O)N(C)[C@H]2C/C=C\CCN(C2=O)[C@@H](Cc2ccc(C)cc2)C(=O)N(C)CC(=O)N[C@@H](CCc2ccc(C(F)(F)F)c(Cl)c2)C(=O)N2C[C@@H](C)C[C@H]2C(=O)NC2(CCC2)C(=O)N(C)[C@@H](C2CCCC2)C(=O)N(C)[C@H](C(=O)N(C)CC)CC(=O)N1C [PP1848] | 22.5
CCC[C@H]1C(=O)N[C@@H]([C@@H](C)CC)C(=O)N(C)CC(=O)N(C)[C@H]2C/C=C\CCN(C2=O)[C@@H](Cc2ccc(C)cc2)C(=O)N(C)CC(=O)N[C@@H](CCc2ccc(C(F)(F)F)c(Cl)c2)C(=O)N2C[C@H](C)C[C@H]2C(=O)NC2(CCC2)C(=O)N(C)[C@@H](C2CCCC2)C(=O)N(C)[C@H](C(=O)N(C)CC)CC(=O)N1C [PP1850] | 49.1
CC[C@H](C)[C@@H]1NC(=O)[C@H](CC)N(C)C(=O)C[C@@H](C(=O)N(C)CC)N(C)C(=O)[C@H](C2CCCC2)N(C)C(=O)C2(CCC2)NC(=O)[C@@H]2C[C@H](C)CN2C(=O)[C@H](CCc2ccc(C(F)(F)F)c(OC)c2)NC(=O)CN(C)C(=O)[C@H](Cc2ccc(C)cc2)N2CC/C=C\C[C@@H](C2=O)N(C)C(=O)CN(C)C1=O [PP1853] | 30.4
CC[C@H](C)[C@@H]1NC(=O)[C@H](CC(F)F)N(C)C(=O)C[C@@H](C(=O)N(C)C)N(C)C(=O)[C@H](C2CCCC2)N(C)C(=O)C2(CC(C)(C)C2)NC(=O)[C@@H]2C[C@H](C)CN2C(=O)[C@H](CCc2ccc(C(F)(F)F)c(OC)c2)NC(=O)CN(C)C(=O)[C@H](Cc2ccc(C)cc2)N2CC/C=C\C[C@@H](C2=O)N(C)C(=O)CN(C)C1=O [PP1875] | 7.7
CC[C@H](C)[C@@H]1NC(=O)[C@H](CC(F)F)N(C)C(=O)C[C@@H](C(=O)N(C)C)N(C)C(=O)[C@H](C2CCCC2)N(C)C(=O)C2(CC(C)(C)C2)NC(=O)[C@@H]2C[C@@H](C)CN2C(=O)[C@H](CCc2ccc(C(F)(F)F)c(OC)c2)NC(=O)CN(C)C(=O)[C@H](Cc2ccc(C)cc2)N2CC/C=C\C[C@@H](C2=O)N(C)C(=O)CN(C)C1=O [PP1877] | 18.4
CC[C@H](C)[C@@H]1NC(=O)[C@H](CC)N(C)C(=O)C[C@@H](C(=O)N(C)CC)N(C)C(=O)[C@H](C2CCCC2)N(C)C(=O)C2(CC(C)(C)C2)NC(=O)[C@@H]2C[C@H](C)CN2C(=O)[C@H](CCc2cc(F)c(C(F)(F)F)c(F)c2)NC(=O)CN(C)C(=O)[C@H](Cc2ccc(C)cc2)N2CC/C=C\C[C@@H](C2=O)N(C)C(=O)CN(C)C1=O [PP1882] | 20.2
